Data taken from US20250339514A1, “SINGLE-AND MULTI-EPITOPE PEPTIDE AND MRNA VACCINES TO GENERATE TOLEROGENIC EFFECTS FOR ALLERGIC AND AUTOIMMUNE DISEASE BY TARGETING LIVER SINUSOIDAL ENDOTHELIAL CELLS” (The Regents of the University of California, priority 2022, published 2025).
Read-outs that look alike come from different tables or passages of the source.

Assays:
[1] = test system: class I MHC K, D, and L loci; details: cited from earlier work; for predicted binding to the H2-Ld locus: SYFPEITHI and BIMAS
[2] = test system: T cell responses; parameters: Immunopositivity of predicted CTL epitope / Immunopositivity of MHC II peptide: scale not given here; details: cited from earlier work; for Immunopositivity of predicted CTL epitope: class I MHC peptides, Table 59; for Immunopositivity of MHC II peptide: MHC II peptides, Table 60
[3] = test system: factor VII; details: cited from earlier work
[4] = target: H2-A^k (Mus musculus, UniProt P01910+P06343); details: MHC II H2-A^k; cited from earlier work
Sequence of H2-A^k (P01910 24-256): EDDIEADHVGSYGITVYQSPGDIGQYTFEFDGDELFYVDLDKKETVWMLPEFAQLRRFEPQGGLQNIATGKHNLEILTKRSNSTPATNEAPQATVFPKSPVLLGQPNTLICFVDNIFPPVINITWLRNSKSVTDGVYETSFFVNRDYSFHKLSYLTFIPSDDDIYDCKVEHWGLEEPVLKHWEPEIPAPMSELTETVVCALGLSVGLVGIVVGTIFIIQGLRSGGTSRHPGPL
Sequence of H2-A^k (P06343 28-263): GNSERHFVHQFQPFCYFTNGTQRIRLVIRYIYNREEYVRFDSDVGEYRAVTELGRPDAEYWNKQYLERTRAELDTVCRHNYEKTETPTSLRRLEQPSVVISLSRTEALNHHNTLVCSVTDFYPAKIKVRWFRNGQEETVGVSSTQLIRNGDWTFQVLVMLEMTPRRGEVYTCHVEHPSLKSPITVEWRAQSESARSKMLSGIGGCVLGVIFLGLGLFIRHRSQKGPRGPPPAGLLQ

[5] = Cargo loading and ApoBP ligand content by microBCA / BCA assay; type: physicochemical
Experimental: The relative abundance of mannan incorporation was assessed by calculating the difference between the total amount offered for conjugation versus the amount recovered in the supernatant. […] The abundance of peptide conjugation was assessed by a microBCA assay and a nanodrop method.
The purified NPs were fully characterized using dynamic light scattering to determine particle size and surface charge, and scanning electron microscopy was performed to visualize particle morphology. The microBCA assay was used to detect OVA loading capacity and the conjugation efficiency of the peptide ligand, whereas the phenol-sulfuric acid method was used to determine mannan concentration. The endotoxin level was verified by a chromogenic LAL assay.
Particles were separated and washed by centrifugation (15,000 g, 10 min). Hydrodynamic size and surface potential were measured using dynamic light scattering (DLS), with visualization of the particle size and morphology by scanning electron microscopy (SEM). […] In addition to loading of T-cell epitopes, we also selected an IgE binding peptide for encapsulation, in addition to the synthesis of nanoparticles that incorporate CPPE as well as a purified Ara h2 protein (Indoor Biotechnologies). The CPPE was prepared as described in the Online Repository section. Allergen loading capacity, including for CPPE, purified Ara h2 and its epitopes, as well as the conjugation efficacy of the ApoB ligand was determined by bicinchoninic acid assay (BCA assay).

[6] = test system: I-Ek; details: cited from earlier work; for SYFPEITHI score: I-Ek; for Score (antigenic score predicted): MHC II H2-E^k
[7] = ionizable lipid; cited from earlier work
[8] = test system: human T-cell lines; details: T-cell lines isolated from 10 different donors; cited from earlier work
[9] = test system: lupus-prone mice; details: subcutaneous every 2 weeks; cited from earlier work
[10] = test system: C57BL/6J mice; details: inhalation of low peptide concentrations, naïve C57BL/6J mice; cited from earlier work
[11] = H2 locus K, haplotype d (9-mer)
[12] = peptide in PLGA nanoparticles, Table 66
[13] = H2 locus K, haplotype k (9-mer)
[14] = H2 locus D, haplotype b (9-mer)

SEQ ID NO: 1134 (EYGIVADNLD; listed as Arachis hypogaea)
BIM score predicted using the BIMAS program [1, 11]: 2400 | SYF score predicted using the SYFPEITHI program [1, 11]: 23 | Immunopositivity of predicted CTL epitope [2]: EYGIVADNL^d

SEQ ID NO: 1151 (KYNHDIALL; listed as Arachis hypogaea)
BIM score predicted using the BIMAS program [1, 11]: 3456 | SYF score predicted using the SYFPEITHI program [1, 11]: 24 | Immunopositivity of predicted CTL epitope [2]: KYNHDIALL^c

CCCCC/C=C\C/C=C\CCCCCCCCC1(CCCCCCCC/C=C\C/C=C\CCCCC)OCC(CN(C)C)O1 (stereo not drawn) [DLin-K-DMA, 2,2-dilinoleyl-4-dimethylaminomethyl-[1,3]-dioxolane]
potency on the in vivo silencing of factor VII ([3]; higher than the other tested lipids): 2.5 fold

SEQ ID NO: 1173 (NGRDSLVNPGPAMAS; listed as Arachis hypogaea)
Score (antigenic score predicted) [4]: 24

1 (LALFLLAAHASARQQ; listed as Arachis hypogaea) [compound 1]
Loading Capacity ([5]; epitope in PLGA NPs, Table 68): 1.62 + 2.11 μg/mg

#2 (LRNLPQQCGLRAPQR; listed as Arachis hypogaea)
Loading Capacity [5, 12]: 3.22 + 1.96

SEQ ID NO: 1122 (EEIRTTNPV; listed as Arachis hypogaea)
BIM score predicted using the BIMAS program [1, 13]: 100 | SYF score predicted using the SYFPEITHI program [1, 13]: 20 | Immunopositivity of predicted CTL epitope [2]: EEIRTTNPY^e

YTKVSRYVNWIKEKT [hF.IX aa 444-460, reference compound]
SYFPEITHI score [6]: 22

SEQ ID NO: 1115 (QYGSVSTNL; listed as Arachis hypogaea)
BIM score predicted using the BIMAS program [1, 11]: 4147 | SYF score predicted using the SYFPEITHI program [1, 11]: 27 | Immunopositivity of predicted CTL epitope [2]: QYGSVSTNL^c

SEQ ID NO: 1140 (LDRLMNPLI; listed as Arachis hypogaea)
BIM score predicted using the BIMAS program [1, 13]: 100 | SYF score predicted using the SYFPEITHI program [1, 13]: 20 | Immunopositivity of predicted CTL epitope [2]: LDRLMNPLI^e

SEQ ID NO: 1133 (KYLGPFNGL; listed as Arachis hypogaea)
BIM score predicted using the BIMAS program [1, 11]: 6912 | SYF score predicted using the SYFPEITHI program [1, 11]: 27 | Immunopositivity of predicted CTL epitope [2]: KYLGPFNGL^c

VPQYGYLTL [AAV2 capsid aa 170-178, reference compound]
predicted binding to the H2-Ld locus [1]: high-scoring

SEQ ID NO: 1124 (TADVNTQGV; listed as Arachis hypogaea)
BIM score predicted using the BIMAS program [1, 14]: 3.4 | SYF score predicted using the SYFPEITHI program [1, 14]: 23 | Immunopositivity of predicted CTL epitope [2]: TADVNTQGV^e

SEQ ID NO: 1175 (YKYLLGPFNGLDKGEP; listed as Arachis hypogaea)
Score (antigenic score predicted) [6]: 28 | Immunopositivity of MHC II peptide [2]: YKYLLGPINGUDKGEP^d

SEQ ID NO: 1141 (EEIKTTNPV; listed as Arachis hypogaea)
BIM score predicted using the BIMAS program [1, 13]: 100 | SYF score predicted using the SYFPEITHI program [1, 13]: 20 | Immunopositivity of predicted CTL epitope [2]: EEIKTTNPV^e

#3 (MAKLTILVALALFLL; listed as Arachis hypogaea)
Loading Capacity [5, 12]: 1.31 + 1.72

QVSVEIEWELQKENS [AAV2-VP3 475-489, reference compound]
SYFPEITHI score [6]: 22 | Th2 response ([2]; C3H mice): strong Th2 response

SEQ ID NO: 1160 (GSIVNEKWID; listed as Arachis hypogaea)
BIM score predicted using the BIMAS program [1, 14]: 936 | SYF score predicted using the SYFPEITHI program [1, 14]: 26 | Immunopositivity of predicted CTL epitope [2]: GSIVNEKWI^d

#1 (LALFLLAAHASARQQ; listed as Arachis hypogaea)
Loading Capacity [5, 12]: 1.62 + 2.11

SEQ ID NO: 1182 (CKDDINSYECWCPFG; listed as Arachis hypogaea)
Score (antigenic score predicted) [4]: 18

SEQ ID NO: 1176 (IVADNLQQQNTAPQI; listed as Arachis hypogaea)
Score (antigenic score predicted) [4]: 26

SEQ ID NO: 1181 (YNHDIALLELLEDEPLV; listed as Arachis hypogaea)
Score (antigenic score predicted) [4]: 24

SEQ ID NO: 1180 (NKWCSCTEGYRLAE; listed as Arachis hypogaea)
Score (antigenic score predicted) [6]: 22

SEQ ID NO: 1152 (GYVSGWGRVD; listed as Arachis hypogaea)
BIM score predicted using the BIMAS program [1, 11]: 1440 | SYF score predicted using the SYFPEITHI program [1, 11]: 22 | Immunopositivity of predicted CTL epitope [2]: GYVSGWGRV^d

SEQ ID NO: 1183 (QYVDGDQCESNPCLN; listed as Arachis hypogaea)
Score (antigenic score predicted) [4]: 18

1,2-dioleoyl-3-dimethylaminopropane [DODAP]
pKa [7]: 6.6

LEPLGLVEEGAKTAP [AAV8-VP3 aa 126-140, reference compound]
SYFPEITHI score [6]: 28 | Th1 response ([2]; C3H mice): strong H2k MHC II-restricted Th1 response

SEQ ID NO: 1161 (LDHENANKI; listed as Arachis hypogaea)
BIM score predicted using the BIMAS program [1, 14]: 240 | SYF score predicted using the SYFPEITHI program [1, 14]: 23 | Immunopositivity of predicted CTL epitope [2]: LDHENANKI^e

AH91-110: adalimumab HCDR3 peptide
recognition by T-cell lines [8]: recognized by the majority of T-cell lines

3 (MAKLTILVALALFLL; listed as Arachis hypogaea) [compound 3]
Loading Capacity ([5]; epitope in PLGA NPs, Table 68): 1.31 + 1.72 μg/mg

SEQ ID NO: 1174 (LEPLGLVEEGAKTAP; listed as Arachis hypogaea)
Score (antigenic score predicted) [6]: 28 | Immunopositivity of MHC II peptide [2]: LEPLGLVEEGAKTAP^b

SEQ ID NO: 1178 (NSYVTPICIADEKEYT; listed as Arachis hypogaea)
Score (antigenic score predicted) [6]: 24 | Immunopositivity of MHC II peptide [2]: NSYVTPICIADKEYT^c

SEQ ID NO: 1172 (TSADNNNSEYSWTGA; listed as Arachis hypogaea)
Score (antigenic score predicted) [4]: 24

AH96-110: adalimumab HCDR3 peptide (CAKVSYLSTASSLDY; listed as Homo sapiens)
recognition by T-cell lines [8]: recognized by the majority of T-cell lines

H4 aa 71-94: nucleosomal histone H4 peptide autoepitope
efficacy of autoepitope [9]: most effective autoepitope

SEQ ID NO: 1121 (LDRLMNPLI; listed as Arachis hypogaea)
SYF score predicted using the SYFPEITHI program [1, 13]: 20 | Immunopositivity of predicted CTL epitope [2]: LDRLMNPLI^e

QPARKRLNF [AAV8 capsid aa 166-174, reference compound]
predicted binding to the H2-Ld locus [1]: high-scoring

SEQ ID NO: 1171 (GVLIFGKQSEKTNV; listed as Arachis hypogaea)
Score (antigenic score predicted) [6]: 22

#4 (SYGRDPYSPSQDPYS; listed as Arachis hypogaea)
Loading Capacity [5, 12]: 8.68 + 2.04

CCCCC/C=C\C/C=C\CCCCCCCCC1(CCCCCCCC/C=C\C/C=C\CCCCC)OCC(CCN(C)C)O1 (stereo not drawn) [DLin-KC2-DMA, 2,2-dilinoleyl-4-(2-dimethylaminoethyl)-[1,3]-dioxolane]
activity ([3]; higher activity over DLin-K-DMA): 4 fold

CCCCC/C=C\C/C=C\CCCCCCCCC(CCCCCCCC/C=C\C/C=C\CCCCC)OC(=O)CCCN(C)C [DLin-MC3-DMA, (6Z,9Z,28Z,31Z)-heptatriaconta-6,9,28,31-tetraen-19-yl-4-(dimethylamino) butanoate]
pKa [7]: 6.44 | potency ([3]; higher potency than DLin-KC2-DMA): 10 fold

NSYVTPICIADKEYT [hF.IX aa 328-342, reference compound]
SYFPEITHI score [6]: 24

2 (LRNLPQQCGLRAPQR; listed as Arachis hypogaea) [compound 2]
Loading Capacity ([5]; epitope in PLGA NPs, Table 68): 3.22 ± 1.96 µg/mg

Der p1 T-cell epitope (residues 111-139): major Der p1 T-cell epitope peptide (Hoyne et al.) (FGISNYCQIYPPNVNKIREALAQTHSAIA; UniProt P08176 209-237, looked up, fragment)
tolerance induction [10]: capable of inducing tolerance

CCCCC/C=C\C/C=C\CCCCCCCCC(O)(CCCCCCCC/C=C\C/C=C\CCCCC)CCCCN(C)C [YSK012-C4]
pKa [7]: 8.0

4 (SYGRDPYSPSQDPYS; listed as Arachis hypogaea) [compound 4]
Loading Capacity ([5]; epitope in PLGA NPs, Table 68): 8.68 ± 2.04 µg/mg

SEQ ID NO: 1170 (QVSVEIEWELQKENS; listed as Arachis hypogaea)
Score (antigenic score predicted) [6]: 22 | Immunopositivity of MHC II peptide [2]: QVSVEIEWELQKENS^b

SEQ ID NO: 1179 (YTKVSRYVNWIEKEKT; listed as Arachis hypogaea)
Score (antigenic score predicted) [6]: 22
